Test results: BindingDB's records for doi:10.1021/jm0510530 (Universit&#224, 2006)

Legend:
[1] = Vasodilator activity assessed as ability to relax phenylephrine-induced contraction of Wistar rat aortic strips
[2] = Vasodilator activity assessed as ability to relax phenylephrine-induced contraction of Wistar rat aortic strips in presence of 1 uM ODQ

SMILES | EC50 [1] | EC50 [2]
COc1cc(CCCOc2no[n+]([O-])c2S(=O)(=O)c2ccccc2)cc(OC)c1O [4-(3-(3-benzenesulfonylfuroxan-4-yloxy)propyl)-2,6-dimethoxyphenol] | 0.022 µM | 0.5 µM
CN(CCCc1cc(C(C)(C)C)c(O)c(C(C)(C)C)c1)Cc1no[n+]([O-])c1C(N)=O [4-((N-(3-(3,5-di-tert-butyl-4-hydroxyphenyl)propyl)-N-methylamino)methyl)furoxan-3-carboxamide] | 0.41 µM | 7.4 µM
NC(=O)c1c(CO)no[n+]1[O-] [4-hydroxymethyl-2-oxy-furazan-3-carboxylic acid amide] | 6.3 µM | –
CC(C)(C)c1cc(CCCO[N+](=O)[O-])cc(C(C)(C)C)c1O [2,6-Di-tert-butyl-4-(3-nitrooxy-propyl)-phenol] | 40 µM | –
O=S(=O)(c1ccccc1)c1c(OCCCc2ccc(O)cc2)no[n+]1[O-] [4-(3-(3-benzenesulfonylfuroxan-4-yloxy)propyl)phenol] | 0.012 µM | 0.36 µM
O=[N+]([O-])OCCCc1ccc(O)cc1 [4-(3-Nitrooxy-propyl)-phenol] | 1 µM | –
Cc1c(C)c2c(c(C)c1O)CCC(C)(COCCCO[N+](=O)[O-])O2 (centres undefined) [2,5,7,8-Tetramethyl-2-(3-nitrooxy-propoxymethyl)-chroman-6-ol] | 1.2 µM | 10 µM
Cc1c(C)c2c(c(C)c1O)CCC(C)(COc1no[n+]([O-])c1S(=O)(=O)c1ccccc1)O2 (centres undefined) [2-(4-Benzenesulfonyl-5-oxy-furazan-3-yloxymethyl)-2,5,7,8-tetramethyl-chroman-6-ol] | 0.044 µM | 0.67 µM
COc1cc(CCCO[N+](=O)[O-])cc(OC)c1O [3-(4-hydroxy-3,5-dimethoxyphenyl)propyl nitrate] | 4.3 µM | –
Cc1c(C)c2c(c(C)c1O)CCC(C)(CN(C)Cc1no[n+]([O-])c1C(N)=O)O2 (centres undefined) [4-((N-((6-hydroxy-2,5,7,8-tetramethylchroman-2-yl)methyl)-N-methylamino)methyl)furoxan-3-carboxamide] | 1.5 µM | 19 µM
CC(C)(C)c1cc(CCCOc2no[n+]([O-])c2S(=O)(=O)c2ccccc2)cc(C(C)(C)C)c1O [4-(3-(3-benzenesulfonylfuroxan-4-yloxy)propyl)-2,6-di-tertbutylphenol] | 0.11 µM | 4.8 µM
CN(C)Cc1no[n+]([O-])c1C(N)=O [4-dimethylaminomethyl-2-oxy-furazan-3-carboxylic acid amide] | 3.1 µM | –
